Source: US8349297B2, “Topical formulations” (Medpharm Limited, priority 2005, dated 2013)

Tests used:
[1] = Phase diagram construction with visual solubility assessment
Description: Formulations were prepared by the sequential weighing of the drug followed by the remaining excipients into a 10 mL PET glass coated canister. A magnetic stirrer bar was added and the formulations were crimped with a 100 μL valve. The formulations were allowed to shake for approximately 16 h at room temperature prior to the addition of HFA, and then shaken for a further 8 h prior to visual solubility assessment.

[2] = Solubility studies in PET canisters (clarity observed, ternary phase plot); assay type: physicochemical
Description: Solubility studies were conducted in clear, PET canisters. Stir bars were added to the canister and the canister was tared on an analytical balance. […] Lids were placed on the canisters and crimped. The solutions were left to stir overnight. […] All percentages are based on weight/weight calculations.

[3] = Stability of BMV in the skin permeation system; assay type: physicochemical; conditions: at both 4° C. and 37° C.
Description: Stratum corneum was isolated from a frozen human skin sample using standard protocol. The prepared skin was mounted on a filter support and placed on the receiver section of an upright Franz cell. The donor compartment was then fixed on top of the receiver compartment and secured using Parafilm. A magnetic flea and thermostatically regulated receiver fluid (90:10 Acetate Buffer pH=4.5:EtOH) were added to each Franz cell. These cells were placed in a bath at 37° C. and allowed to equilibrate and after a few hours a blank sample was taken from each cell. The integrity of each cell was determined via inversion and an appropriate amount of formulation was applied to the donor chamber of the Franz cell. […] Samples were held at room temperature until HPLC analysis.

## O=C(OOC(=O)c1ccccc1)c1ccccc1 [BPO, Benzoyl peroxide]
[1]; 10% ethanol, PVP K90
  drug level at which a saturated system could be formed: 1%

## CCCCC(=O)O[C@]1(C(=O)CO)[C@@H](C)C[C@H]2[C@@H]3CCC4=CC(=O)C=C[C@]4(C)[C@@]3(F)[C@@H](O)C[C@@]21C [BMV, betamethasone valerate]
[2]
  PVP level at which the drug becomes insoluble: around 3 % PVP
  maximum solubility: 1-1.2%
[3]
  time for which BMV was shown to be stable in the system: up to 72 h

## O=C(O)c1ccccc1O [salicylic acid]
[1]; 83% HFA, ethanol level varied, co-povidone S-630
  drug level at which a saturated system could be formed: 2%
